PubChem BioAssay (NCI)
“And” between values parts separate entries of the source, which are not always exact repeats. Identical values can stand only once.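 Test compounds were applied to cells in 96-well plates for 48 hours at 5 doses. GI50 is the concentration that inhibits growth by half. TGI marks complete inhibition of growth.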

Columns and labels:
Assay in all cases: NCI anticancer screen, dose series, 48 h
[1] = system: 786-0 renal
[2] = system: CAKI-1 renal
[3] = system: IGROV1 ovarian
[4] = system: KM12 colon
[5] = system: MCF7 breast
[6] = system: NCI-H226 lung
[7] = system: NCI-H23 lung
[8] = system: NCI-H522 lung
[9] = system: SK-OV-3 ovarian
[10] = system: SNB-19 CNS

Row | Structure (SMILES) | TGI [1] [µM] | TGI [2] | TGI [3] [µM] | TGI [4] [µM] | TGI [5] [µM] | TGI [6] [µM] | TGI [7] [µM] | TGI [8] | TGI [9] | TGI [10] [µM] | GI50 [3] [µM] | GI50 [4] [µM] | GI50 [5] [µM] | GI50 [6] [µM] | GI50 [8] [µM] | GI50 [9] [µM] | GI50 [10] [µM]
1 | OC1C[C@H](c2ccccc2)C2(C(O)c3ccccc3C2O)[C@@H](c2ccccc2)C1 (some centres undefined) | > 100 | > 100 µM | > 100 | > 100 | > 100 | > 100 | > 100 | > 100 µM | > 100 µM | > 100 | – | – | – | – | – | – | –
2 | CCOc1ccc2c(c1)c(=O)c1c(NCCN(CC)CC)ccc3nnn2c31 | > 49 | 41.6 µM | 30.3 | 37.1 | > 68.7 | > 100 | 38.6 | 27.8 µM | > 100 µM | > 100 | – | – | – | – | – | – | –
3 | O=[N+]([O-])c1cccc2nccc(NCCCO)c12 | 37 | 35.4 µM | 27.5 | 24.6 | 27.9 | 50.6 | 27.1 | 20 µM | 61 µM | 69.5 | – | – | – | – | – | – | –
4 | CCC(NC1=NCCO1)c1cccs1 (centres undefined) | 28.7 | 30.9 µM | 39.3 | 36 | 29 | 37.1 | 31.6 | 35.6 µM | 27.3 µM | 29.8 | – | – | – | – | – | – | –
5 | Cc1cn(S(=O)(=O)c2ccccc2)c2c(OCc3ccccc3)cc(NS(C)(=O)=O)cc12 | > 100 | > 100 µM | > 100 | > 100 | 27.3 | > 94.4 | > 100 | > 75.9 µM | > 100 µM | > 100 | – | – | – | – | – | – | –
6 | NC(N)=NCCCC(NC(=O)OCCCCn1ccc(N)nc1=O)C(=O)O (centres undefined) | > 100 | > 100 µM | > 100 | > 100 | > 100 | > 100 | > 100 | – | > 100 µM | > 100 | – | – | – | – | – | – | –
7 | C=CCn1c(-c2ccc([N+](=O)[O-])cc2)csc1=N | > 100 | > 100 µM | > 100 | > 100 | > 100 | > 100 | > 100 | > 100 µM | > 100 µM | > 100 | – | – | – | – | – | – | –
8 | Cc1ccc(-n2cc([Si](C)(C)C)nn2)s1 | > 100 | > 100 µM | – | – | > 100 | > 100 | > 100 | > 100 µM | > 100 µM | > 100 | – | – | – | – | – | – | –
9 | Cn1c(O)c(C=Nc2ccccc2Cl)c(=O)n(C)c1=O | 37.7 | > 100 µM | > 100 | > 100 | > 100 | > 100 | > 100 | > 100 µM | > 100 µM | 78.4 | – | – | – | – | – | – | –
10 | CC(=O)OC1COC(Nc2nc(N)n(C)c(=O)c2N=O)C(OC(C)=O)C1OC(C)=O (centres undefined) | > 10 | > 10 µM | > 10 | > 10 | > 10 | > 10 | > 10 | > 10 µM | > 10 µM | > 10 | – | – | – | – | – | – | –
11 | CC1=NN(c2nc(N)nc(CF)n2)C(C)(C)C1 | > 100 | > 100 µM | > 100 | > 100 | > 100 | > 100 | > 100 | – | > 100 µM | > 100 | – | – | – | – | – | – | –
12 | CN(C)/N=N/c1nc[nH]c1C(N)=O | > 1000 | 71.7 µM and 539 µM | – | > 1000 | > 1000 | – | – | 89.3 µM and > 779 µM | 88.7 µM and 328 µM | > 1000 | 129 | > 156 | 154 | 140 | 82 | 14.2 | > 85.3
13 | [N-]=[N+]=Nc1c([N+](=O)[O-])c(=O)n2c3c(cccc13)CCC2 | 30.9 | 27.9 µM | 41 | 34.8 | 27 | 51.9 | 43.6 | 4.58 µM | > 100 µM | > 100 | – | – | – | – | – | – | –
14 | CCOC(=O)/C=C(\C(=O)OCC)n1ccc(=O)[nH]c1=O | 18.5 | 3.52 µM | 30.1 | 35.2 | 23.9 | > 39.1 | 32.4 | 2.12 µM | > 76.1 µM | > 100 | – | – | – | – | – | – | –
15 | CC(C)(C)OC(=O)NCC(=O)N1CCN(C(=O)CNC(=O)OC(C)(C)C)CC1 | > 100 | > 100 µM | > 100 | > 100 | > 100 | > 100 | > 100 | 7.12 µM | > 100 µM | > 100 | – | – | – | – | – | – | –
16 | Cc1ccc(N=C2C(=Nc3ccc(C)cc3)N(c3ccc(C)cc3)C(=S)N2C(=O)c2ccccc2)cc1 | > 100 | > 100 µM | > 100 | > 100 | > 100 | > 100 | > 100 | > 100 µM | > 100 µM | > 100 | – | – | – | – | – | – | –
17 | Oc1cc(Br)cc2cc(Cl)cnc12 | 38.8 | 85.9 µM | 27.1 | > 42.7 | 23.8 | 64.4 | 48.2 | 10.6 µM | > 68.9 µM | > 100 | – | – | – | – | – | – | –
18 | CC(C)(C)CC(C)(C)c1ccc(O)c(C[N+](C)(C)[O-])c1 | > 100 | > 100 µM | > 100 | > 100 | > 100 | > 100 | > 100 | > 100 µM | > 100 µM | > 100 | – | – | – | – | – | – | –
19 | S=c1[nH]c2ccc(I)cc2c(=S)n1Cc1ccccc1 | 21.4 | > 100 µM | 27.6 | 50.7 | > 100 | > 100 | 9.61 | 16.5 µM | > 100 µM | 48.6 | – | – | – | – | – | – | –
20 | C=C1C(=O)OC2CC3(C)OC3CC/C(C)=C/C(OC(C)=O)C12 (centres undefined) | 14.2 | 6.24 µM | 35.3 | 39.9 | 18 | 26.8 | 27.6 | 2.64 µM | 37 µM | 31 | – | – | – | – | – | – | –
21 | CCC[C@@H]1C(=O)N=C(N)N1C(=O)OCc1ccccc1 | > 100 | > 100 µM | > 100 | > 100 | > 100 | > 100 | > 100 | > 100 µM | – | > 100 | – | – | – | – | – | – | –
